Laboratory results published in US20240239861A1, “GLUCAGON-RECEPTOR SELECTIVE POLYPEPTIDES AND METHODS OF USE THEREOF” (i2O Therapeutics, Inc., priority 2016, published 2024).
Where a SMILES comes first, the peptide text is derived from it. [ ]: non-standard residue; d: D form. Aib = CC(C)(N)C(=O)O

Tests used:
human GLP-1R = human GLP-1R (Homo sapiens, UniProt P43220); experiment: Peptide-receptor mediated cAMP accumulation (LANCE Ultra cAMP) in CHO-K1 cells transfected with human GLP-1R; type: cell-based; details: hGLP1 pEC50 (cAMP mean (n = 3): 11 point curve starting at 1 nM, Table 3)
Sequence of human GLP-1R (P43220 24-463): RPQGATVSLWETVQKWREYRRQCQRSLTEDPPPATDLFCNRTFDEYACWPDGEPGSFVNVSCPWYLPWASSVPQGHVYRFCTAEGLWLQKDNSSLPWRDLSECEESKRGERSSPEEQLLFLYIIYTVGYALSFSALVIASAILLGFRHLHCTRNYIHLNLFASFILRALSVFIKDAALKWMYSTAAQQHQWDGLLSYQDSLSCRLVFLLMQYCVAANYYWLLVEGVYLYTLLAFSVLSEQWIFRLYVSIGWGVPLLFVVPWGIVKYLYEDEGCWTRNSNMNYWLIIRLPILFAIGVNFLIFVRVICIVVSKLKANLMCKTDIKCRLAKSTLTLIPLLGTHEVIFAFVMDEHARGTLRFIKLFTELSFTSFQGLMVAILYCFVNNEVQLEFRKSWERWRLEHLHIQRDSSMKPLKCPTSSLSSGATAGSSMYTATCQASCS

human GCGR = human GCGR (Homo sapiens, UniProt P47871); experiment: Peptide-receptor mediated cAMP accumulation (LANCE Ultra cAMP) in CHO-K1 cells transfected with human GCGR; type: cell-based; details: Table 3
Sequence of human GCGR (P47871 26-477): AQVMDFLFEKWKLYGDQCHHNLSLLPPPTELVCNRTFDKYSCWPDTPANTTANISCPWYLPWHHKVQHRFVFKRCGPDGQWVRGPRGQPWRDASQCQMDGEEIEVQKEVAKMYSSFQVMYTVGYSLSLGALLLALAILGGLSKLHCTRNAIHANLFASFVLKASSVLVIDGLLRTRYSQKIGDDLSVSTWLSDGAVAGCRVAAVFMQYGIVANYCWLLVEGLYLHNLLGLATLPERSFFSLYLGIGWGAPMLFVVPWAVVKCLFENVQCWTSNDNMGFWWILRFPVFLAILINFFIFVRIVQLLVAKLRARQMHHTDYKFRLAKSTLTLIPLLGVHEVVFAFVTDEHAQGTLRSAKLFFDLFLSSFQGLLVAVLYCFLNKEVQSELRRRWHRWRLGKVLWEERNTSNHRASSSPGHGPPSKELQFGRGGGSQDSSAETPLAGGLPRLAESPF

in vivo = details: male, rat

| SMILES | EC50 (human GLP-1R) | EC50 (human GCGR) | clearance (in vivo) |
| --- | --- | --- | --- |
| CC(C)C[C@H](NC(=O)[C@H](Cc1ccc(O)cc1)NC(=O)[C@H](CCCCN)NC(=O)[C@H](CO)NC(=O)[C@H](Cc1ccc(O)cc1)NC(=O)[C@H](CC(=O)O)NC(=O)[C@H](CO)NC(=O)[C@@H](NC(=O)[C@H](Cc1ccccc1)NC(=O)[C@@H](NC(=O)CNC(=O)[C@H](Cc1c[nH]cn1)NC(=O)[C@H](CO)NC(=O)[C@@H](N)Cc1ccc(O)cc1)[C@@H](C)O)[C@@H](C)O)C(=O)N[C@@H](CC(=O)O)C(=O)N[C@@H](CCCCN)C(=O)N[C@@H](C)C(=O)N[C@@H](CCCNC(=N)N)C(=O)N[C@@H](C)C(=O)N[C@@H](CCC(N)=O)C(=O)N[C@@H](CCC(=O)O)C(=O)N[C@@H](Cc1ccccc1)C(=O)N[C@H](C(=O)N[C@@H](CCCCN)C(=O)N[C@@H](Cc1c[nH]c2ccccc12)C(=O)N[C@@H](CC(C)C)C(=O)N[C@@H](CCC(=O)O)C(=O)N[C@@H](CC(=O)O)C(=O)N[C@@H](CCC(=O)O)C(=O)N1CCC[C@H]1C(=O)N[C@@H](CO)C(=O)N[C@@H](CO)C(=O)NCC(=O)N[C@@H](C)C(=O)N1CCC[C@H]1C(=O)N1CCC[C@H]1C(=O)N1CCC[C@H]1C(=O)N[C@@H](CO)C(=O)O)C(C)C [Compound A43] (H-YSHGTFTSDYSKYLDKARAQEFVKWLEDEPSSGAPPPS-OH; N-terminus assumed) | > 1000 pM | 1.58 pM | 47 mL/min/kg |
| CC(C)C[C@H](NC(=O)[C@H](Cc1ccc(O)cc1)NC(=O)[C@H](CCCCN)NC(=O)[C@H](CO)NC(=O)[C@H](Cc1ccc(O)cc1)NC(=O)[C@H](CC(=O)O)NC(=O)[C@H](CO)NC(=O)[C@@H](NC(=O)[C@H](Cc1ccccc1)NC(=O)[C@@H](NC(=O)CNC(=O)[C@H](Cc1c[nH]cn1)NC(=O)[C@H](CO)NC(=O)[C@@H](N)Cc1ccc(O)cc1)[C@@H](C)O)[C@@H](C)O)C(=O)N[C@@H](CC(=O)O)C(=O)N[C@@H](CCC(N)=O)C(=O)N[C@@H](C)C(=O)N[C@@H](CCCNC(=N)N)C(=O)N[C@@H](C)C(=O)N[C@@H](CCC(N)=O)C(=O)N[C@@H](CCC(=O)O)C(=O)N[C@@H](Cc1ccccc1)C(=O)N[C@H](C(=O)N[C@@H](CCCCN)C(=O)N[C@@H](Cc1c[nH]c2ccccc12)C(=O)N[C@@H](CC(C)C)C(=O)N[C@@H](CCC(=O)O)C(=O)N[C@@H](CC(=O)O)C(=O)N[C@@H](CCC(=O)O)C(=O)N1CCC[C@H]1C(=O)N[C@@H](CO)C(=O)N[C@@H](CO)C(=O)NCC(=O)N[C@@H](C)C(=O)N1CCC[C@H]1C(=O)N1CCC[C@H]1C(=O)N1CCC[C@H]1C(=O)N[C@@H](CO)C(=O)O)C(C)C [Compound A44] (H-YSHGTFTSDYSKYLDQARAQEFVKWLEDEPSSGAPPPS-OH; N-terminus assumed) | > 1000 pM | 1.26 pM | 23.9 mL/min/kg |
| CC(C)C[C@H](NC(=O)[C@H](Cc1c[nH]c2ccccc12)NC(=O)[C@H](CCCCN)NC(=O)[C@H](CO)NC(=O)[C@H](Cc1ccc(O)cc1)NC(=O)[C@H](CC(=O)O)NC(=O)[C@H](CO)NC(=O)[C@@H](NC(=O)[C@H](Cc1ccccc1)NC(=O)[C@@H](NC(=O)CNC(=O)[C@H](Cc1c[nH]cn1)NC(=O)[C@@H](NC(=O)[C@@H](N)Cc1ccc(O)cc1)[C@@H](C)O)[C@@H](C)O)[C@@H](C)O)C(=O)N[C@@H](CC(=O)O)C(=O)NC(C)(C)C(=O)N[C@@H](C)C(=O)N[C@@H](CCCNC(=N)N)C(=O)N[C@@H](C)C(=O)N[C@@H](CCC(N)=O)C(=O)N[C@@H](CCC(=O)O)C(=O)N[C@@H](Cc1ccccc1)C(=O)N[C@H](C(=O)NC(C)(C)C(=O)N[C@@H](Cc1c[nH]c2ccccc12)C(=O)N[C@@H](CC(C)C)C(=O)N[C@@H](CCC(=O)O)C(=O)N[C@@H](CC(=O)O)C(=O)N[C@@H](CCC(=O)O)C(=O)N1CCC[C@H]1C(=O)N[C@@H](CO)C(=O)N[C@@H](CO)C(=O)NCC(=O)N[C@@H](C)C(=O)N1CCC[C@H]1C(=O)N1CCC[C@H]1C(=O)N1CCC[C@H]1C(=O)N[C@@H](CO)C(=O)O)C(C)C [Compound A35] (H-YTHGTFTSDYSKWLD[Aib]ARAQEFV[Aib]WLEDEPSSGAPPPS-OH; N-terminus assumed) | > 1000 pM |  | 30.1 mL/min/kg |

Next, values leading:

| EC50 (human GLP-1R) | EC50 (human GCGR) | clearance (in vivo) | SMILES |
| --- | --- | --- | --- |
| > 1000 pM | 1 pM | 20.9 mL/min/kg | CC(C)C[C@H](NC(=O)[C@H](Cc1ccc(O)cc1)NC(=O)[C@H](CCCCN)NC(=O)[C@H](CO)NC(=O)[C@H](Cc1ccc(O)cc1)NC(=O)[C@H](CC(=O)O)NC(=O)[C@H](CO)NC(=O)[C@@H](NC(=O)[C@H](Cc1ccccc1)NC(=O)[C@@H](NC(=O)CNC(=O)[C@H](Cc1c[nH]cn1)NC(=O)[C@H](CO)NC(=O)[C@@H](N)Cc1ccc(O)cc1)[C@@H](C)O)[C@@H](C)O)C(=O)N[C@@H](CC(=O)O)C(=O)N[C@@H](CO)C(=O)N[C@@H](C)C(=O)N[C@@H](CCCNC(=N)N)C(=O)N[C@@H](C)C(=O)N[C@@H](CCC(N)=O)C(=O)N[C@@H](CCC(=O)O)C(=O)N[C@@H](Cc1ccccc1)C(=O)N[C@H](C(=O)N[C@@H](CCCCN)C(=O)N[C@@H](Cc1c[nH]c2ccccc12)C(=O)N[C@@H](CC(C)C)C(=O)N[C@@H](CCC(=O)O)C(=O)N[C@@H](CC(=O)O)C(=O)N[C@@H](CCC(=O)O)C(=O)N1CCC[C@H]1C(=O)N[C@@H](CCCCN)C(=O)N[C@@H](CO)C(=O)N[C@@H](CCCCN)C(=O)N[C@@H](CO)C(=O)N1CCC[C@H]1C(=O)N1CCC[C@H]1C(=O)N1CCC[C@H]1C(=O)N[C@@H](CO)C(=O)O)C(C)C [Compound A70] (H-YSHGTFTSDYSKYLDSARAQEFVKWLEDEPKSKSPPPS-OH; N-terminus assumed) |
| > 1000 pM | 2 pM | 23 mL/min/kg | CC(C)C[C@H](NC(=O)[C@H](Cc1ccc(O)cc1)NC(=O)[C@H](CCCCN)NC(=O)[C@H](CO)NC(=O)[C@H](Cc1ccc(O)cc1)NC(=O)[C@H](CC(=O)O)NC(=O)[C@H](CO)NC(=O)[C@@H](NC(=O)[C@H](Cc1ccccc1)NC(=O)[C@@H](NC(=O)CNC(=O)[C@H](Cc1c[nH]cn1)NC(=O)[C@H](CO)NC(=O)[C@@H](N)Cc1ccc(O)cc1)[C@@H](C)O)[C@@H](C)O)C(=O)N[C@@H](CC(=O)O)C(=O)N[C@@H](CO)C(=O)N[C@@H](C)C(=O)N[C@@H](CCCNC(=N)N)C(=O)N[C@@H](C)C(=O)N[C@@H](CCC(N)=O)C(=O)N[C@@H](CCC(=O)O)C(=O)N[C@@H](Cc1ccccc1)C(=O)N[C@H](C(=O)N[C@@H](CCCCN)C(=O)N[C@@H](Cc1c[nH]c2ccccc12)C(=O)N[C@@H](CC(C)C)C(=O)N[C@@H](CCC(=O)O)C(=O)N[C@@H](CC(=O)O)C(=O)N[C@@H](CCC(=O)O)C(=O)N1CCC[C@H]1C(=O)N[C@@H](CCCCN)C(=O)N[C@@H](CO)C(=O)N[C@@H](CCCCN)C(=O)N[C@@H](CO)C(=O)N1CCC[C@H]1C(=O)N1CCC[C@H]1C(=O)N1CCC[C@H]1C(=O)N[C@@H](CO)C(N)=O)C(C)C [Compound A73] (H-YSHGTFTSDYSKYLDSARAQEFVKWLEDEPKSKSPPPS-NH2; N-terminus assumed) |
| > 1000 pM | 3.98 pM | 29.4 mL/min/kg | CC(C)C[C@H](NC(=O)[C@H](Cc1ccc(O)cc1)NC(=O)[C@H](CCCCN)NC(=O)[C@H](CO)NC(=O)[C@H](Cc1ccc(O)cc1)NC(=O)[C@H](CC(=O)O)NC(=O)[C@H](CO)NC(=O)[C@@H](NC(=O)[C@H](Cc1ccccc1)NC(=O)[C@@H](NC(=O)CNC(=O)[C@H](Cc1c[nH]cn1)NC(=O)[C@H](CO)NC(=O)[C@@H](N)Cc1ccc(O)cc1)[C@@H](C)O)[C@@H](C)O)C(=O)N[C@@H](CC(=O)O)C(=O)N[C@@H](CO)C(=O)N[C@@H](C)C(=O)N[C@@H](CCCNC(=N)N)C(=O)N[C@@H](C)C(=O)N[C@@H](CCC(N)=O)C(=O)N[C@@H](CCC(=O)O)C(=O)N[C@@H](Cc1ccccc1)C(=O)N[C@H](C(=O)N[C@@H](CCCCN)C(=O)N[C@@H](Cc1c[nH]c2ccccc12)C(=O)N[C@@H](CC(C)C)C(=O)N[C@@H](CCC(=O)O)C(=O)N[C@@H](CC(=O)O)C(=O)N[C@@H](CCC(=O)O)C(=O)N1CCC[C@H]1C(=O)N[C@@H](CO)C(=O)N[C@@H](CO)C(=O)NCC(=O)N[C@@H](CCCCN)C(=O)N1CCC[C@H]1C(=O)N1CCC[C@H]1C(=O)N1CCC[C@H]1C(=O)N[C@@H](CO)C(=O)O)C(C)C [Compound A61] (H-YSHGTFTSDYSKYLDSARAQEFVKWLEDEPSSGKPPPS-OH; N-terminus assumed) |
| > 1000 pM |  | 37 mL/min/kg | CC(C)C[C@H](NC(=O)[C@H](Cc1ccc(O)cc1)NC(=O)[C@H](CCCCN)NC(=O)[C@H](CO)NC(=O)[C@H](Cc1ccc(O)cc1)NC(=O)[C@H](CC(=O)O)NC(=O)[C@H](CO)NC(=O)[C@@H](NC(=O)[C@H](Cc1ccccc1)NC(=O)[C@@H](NC(=O)CNC(=O)[C@H](Cc1c[nH]cn1)NC(=O)[C@H](CO)NC(=O)[C@@H](N)Cc1ccc(O)cc1)[C@@H](C)O)[C@@H](C)O)C(=O)N[C@@H](CC(=O)O)C(=O)NC(C)(C)C(=O)N[C@@H](CCCCN)C(=O)N[C@@H](CCCNC(=N)N)C(=O)N[C@@H](C)C(=O)N[C@@H](CCC(N)=O)C(=O)N[C@@H](CCC(=O)O)C(=O)N[C@@H](Cc1ccccc1)C(=O)N[C@H](C(=O)NC(C)(C)C(=O)N[C@@H](Cc1c[nH]c2ccccc12)C(=O)N[C@@H](CC(C)C)C(=O)N[C@@H](CCC(=O)O)C(=O)N[C@@H](CC(=O)O)C(=O)N[C@@H](CCC(=O)O)C(=O)N[C@@H](CCCCN)C(=O)N[C@@H](CCCNC(=N)N)C(=O)N[C@@H](CC(N)=O)C(=O)N[C@@H](CCCCN)C(=O)N[C@@H](CC(N)=O)C(=O)N1CCC[C@H]1C(=O)N1CCC[C@H]1C(=O)N1CCC[C@H]1C(=O)N[C@@H](CO)C(=O)O)C(C)C [Compound A48] (H-YSHGTFTSDYSKYLD[Aib]KRAQEFV[Aib]WLEDEKRNKNPPPS-OH; N-terminus assumed) |
